Patent publication US20250243196A1, “CITRON KINASE INHIBITORS” (The Cleveland Clinic Foundation, priority 2021, published 2025)

How the values were obtained:
Format in all cases: biochemical
FGFR3(h) = FGFR3(h) (Homo sapiens (Human), UniProt P22607); test: KinaseProfiler panel; set-up: dose or concentration left out as unconfirmed; details: activity remaining
Flt4(h) = Flt4(h) (Homo sapiens (Human), UniProt P35916); test: KinaseProfiler panel; set-up: dose or concentration left out as unconfirmed; details: activity remaining
WNK4(h) = WNK4(h) (Homo sapiens (Human), UniProt Q96J92); test: KinaseProfiler panel; set-up: dose or concentration left out as unconfirmed; details: activity remaining
Tec(h) activated = Tec(h) activated (Homo sapiens (Human), UniProt P42680); test: KinaseProfiler panel; set-up: dose or concentration left out as unconfirmed; details: activity remaining
CK1γ1(h) = CK1γ1(h) (Homo sapiens (Human), UniProt Q9HCP0); test: KinaseProfiler panel; set-up: dose or concentration left out as unconfirmed; details: activity remaining
CaMKIIα(h) = CaMKIIα(h) (Homo sapiens (Human), UniProt Q9UQM7); test: KinaseProfiler panel; details: activity remaining
SGK3(h) = SGK3(h) (Homo sapiens (Human), UniProt Q96BR1); test: KinaseProfiler panel; set-up: dose or concentration left out as unconfirmed; details: activity remaining
[1] = target: PI3 Kinase (p110a/p85a)(h) (Homo sapiens (Human), UniProt P42336); test: KinaseProfiler panel; set-up: dose or concentration left out as unconfirmed; details: activity remaining
HIPK3(h) = HIPK3(h) (Homo sapiens (Human), UniProt Q9H422); test: KinaseProfiler panel; set-up: dose or concentration left out as unconfirmed; details: activity remaining
LIMK2(h) = LIMK2(h) (Homo sapiens (Human), UniProt P53671); test: KinaseProfiler panel; set-up: dose or concentration left out as unconfirmed; details: activity remaining
EphB1(h) = EphB1(h) (Homo sapiens (Human), UniProt P54762); test: KinaseProfiler panel; set-up: dose or concentration left out as unconfirmed; details: activity remaining
GRK3(h) = GRK3(h) (Homo sapiens (Human), UniProt P35626); test: KinaseProfiler panel; set-up: dose or concentration left out as unconfirmed; details: activity remaining
BIKE = BIKE (Homo sapiens (Human), UniProt Q9NSY1); test: KinaseProfiler radiometric assay (16-044KP); details: mean of at least two independent experiments
Text: In another aspect, disclosed is a method of inhibiting citron kinase in a sample, comprising contacting the sample with a compound described herein (e.g., a compound of formula (I) or a pharmaceutically acceptable salt thereof), or a pharmaceutical composition described herein (e.g., a pharmaceutical composition comprising a compound of formula (I) or a pharmaceutically acceptable salt thereof), in an amount effective to inhibit citron kinase. In some embodiments, the step of contacting the sample with the compound comprises administering the compound to a subject (e.g., a subject) suffering from cancer. Methods of determining kinase inhibition are well known in the art. For example, kinase activity of an enzyme and the inhibitory capacity of a test compound can be determined by measuring enzyme specific phosphorylation of a substrate. Commercial assays and kits can be employed. For example, kinase inhibition can be determined using a radiometric binding assay, such as using KinaseProfiler™ technology (Eurofins Discovery). This assay method directly detects product formation without the use of modified substrates or coupling enzymes. […]
The effect of various compounds on the inhibition of other kinases has also been determined. Table 2 reports measured IC50 values; value units are nanomolar inhibition.

EphA4(h) = EphA4(h) (Homo sapiens (Human), UniProt P54764); test: KinaseProfiler panel; set-up: dose or concentration left out as unconfirmed; details: activity remaining
Haspin(h) = Haspin(h) (Homo sapiens (Human), UniProt Q8TF76); test: KinaseProfiler panel; set-up: dose or concentration left out as unconfirmed; details: activity remaining
PKCη(h) = PKCη(h) (Homo sapiens (Human), UniProt P24723); test: KinaseProfiler panel; set-up: dose or concentration left out as unconfirmed; details: activity remaining
IRE1(h) = IRE1(h) (Homo sapiens (Human), UniProt O75460); test: KinaseProfiler panel; set-up: dose or concentration left out as unconfirmed; details: activity remaining
mTOR(h) = mTOR(h) (Homo sapiens (Human), UniProt P42345); test: KinaseProfiler panel; set-up: dose or concentration left out as unconfirmed; details: activity remaining
TGFBR1(h) = TGFBR1(h) (Homo sapiens (Human), UniProt P36897); test: KinaseProfiler panel; set-up: dose or concentration left out as unconfirmed; details: activity remaining
MINK(h) = MINK(h) (Homo sapiens (Human), UniProt Q8N4C8); test: KinaseProfiler panel; set-up: dose or concentration left out as unconfirmed; details: activity remaining
PDHK4(h) = PDHK4(h) (Homo sapiens (Human), UniProt Q16654); test: KinaseProfiler panel; set-up: dose or concentration left out as unconfirmed; details: activity remaining
PKBβ(h) = PKBβ(h) (Homo sapiens (Human), UniProt P31751); test: KinaseProfiler panel; set-up: dose or concentration left out as unconfirmed; details: activity remaining
BRK(h) = BRK(h) (Homo sapiens (Human), UniProt Q13882); test: KinaseProfiler panel; set-up: dose or concentration left out as unconfirmed; details: activity remaining
PKG1β(h) = PKG1β(h) (Homo sapiens (Human), UniProt Q13976); test: KinaseProfiler panel; set-up: dose or concentration left out as unconfirmed; details: activity remaining
Arg(h) = Arg(h) (Homo sapiens (Human), UniProt P42684); test: KinaseProfiler panel; set-up: dose or concentration left out as unconfirmed; details: activity remaining
MRCKα(h) = MRCKα(h) (Homo sapiens (Human), UniProt Q5VT25); test: KinaseProfiler panel; set-up: dose or concentration left out as unconfirmed; details: activity remaining

GRK3(h), sequence (P35626 whole entry): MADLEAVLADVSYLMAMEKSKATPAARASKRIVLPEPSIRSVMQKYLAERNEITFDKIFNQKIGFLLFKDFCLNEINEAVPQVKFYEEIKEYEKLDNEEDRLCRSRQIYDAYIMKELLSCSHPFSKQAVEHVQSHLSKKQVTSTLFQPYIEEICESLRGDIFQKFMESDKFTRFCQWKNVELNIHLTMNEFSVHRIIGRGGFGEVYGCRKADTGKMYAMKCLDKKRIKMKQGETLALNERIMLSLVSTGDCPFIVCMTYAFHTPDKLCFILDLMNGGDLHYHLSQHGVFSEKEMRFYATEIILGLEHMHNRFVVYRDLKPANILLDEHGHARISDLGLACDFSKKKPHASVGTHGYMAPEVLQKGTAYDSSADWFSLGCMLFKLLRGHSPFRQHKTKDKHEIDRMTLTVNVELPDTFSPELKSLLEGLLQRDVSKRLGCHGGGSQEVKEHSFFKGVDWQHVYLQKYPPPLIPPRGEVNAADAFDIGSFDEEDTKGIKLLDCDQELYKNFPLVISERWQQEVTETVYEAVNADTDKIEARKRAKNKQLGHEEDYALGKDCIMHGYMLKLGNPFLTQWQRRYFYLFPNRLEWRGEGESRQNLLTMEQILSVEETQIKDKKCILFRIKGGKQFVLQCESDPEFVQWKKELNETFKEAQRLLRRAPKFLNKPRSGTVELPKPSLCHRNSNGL
BRK(h), sequence (Q13882 whole entry): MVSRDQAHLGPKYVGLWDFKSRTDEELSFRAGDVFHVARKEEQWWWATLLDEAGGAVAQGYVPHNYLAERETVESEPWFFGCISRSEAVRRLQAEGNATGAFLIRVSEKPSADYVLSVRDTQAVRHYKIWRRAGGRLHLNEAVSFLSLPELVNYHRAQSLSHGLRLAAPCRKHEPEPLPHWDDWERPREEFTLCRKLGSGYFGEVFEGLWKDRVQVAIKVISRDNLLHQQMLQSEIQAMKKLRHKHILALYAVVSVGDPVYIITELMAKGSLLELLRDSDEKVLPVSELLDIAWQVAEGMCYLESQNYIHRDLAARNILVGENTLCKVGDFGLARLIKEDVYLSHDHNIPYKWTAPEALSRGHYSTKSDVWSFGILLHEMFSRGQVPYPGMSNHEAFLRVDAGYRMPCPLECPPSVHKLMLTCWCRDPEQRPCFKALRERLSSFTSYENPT
PKG1β(h), sequence (Q13976 other isoform, or with tags, fused parts or gaps): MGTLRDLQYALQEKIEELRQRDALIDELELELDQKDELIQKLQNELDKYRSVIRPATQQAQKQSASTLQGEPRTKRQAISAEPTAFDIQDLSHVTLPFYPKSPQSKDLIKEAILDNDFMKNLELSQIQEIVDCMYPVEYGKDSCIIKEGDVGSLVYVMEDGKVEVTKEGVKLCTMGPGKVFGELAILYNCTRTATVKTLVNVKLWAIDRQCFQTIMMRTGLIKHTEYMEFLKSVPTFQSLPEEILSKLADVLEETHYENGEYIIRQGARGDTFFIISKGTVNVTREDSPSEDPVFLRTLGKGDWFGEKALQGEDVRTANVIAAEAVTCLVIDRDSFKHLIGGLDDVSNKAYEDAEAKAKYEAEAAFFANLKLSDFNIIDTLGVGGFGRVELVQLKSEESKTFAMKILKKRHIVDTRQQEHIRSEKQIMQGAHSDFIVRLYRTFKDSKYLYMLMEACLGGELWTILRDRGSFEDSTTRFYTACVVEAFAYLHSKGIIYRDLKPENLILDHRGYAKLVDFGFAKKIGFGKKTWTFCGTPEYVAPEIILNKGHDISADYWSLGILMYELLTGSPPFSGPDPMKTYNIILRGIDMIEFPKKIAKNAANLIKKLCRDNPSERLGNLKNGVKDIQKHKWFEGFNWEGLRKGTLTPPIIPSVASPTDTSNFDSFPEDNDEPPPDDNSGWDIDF
MINK(h), sequence (Q8N4C8 whole entry): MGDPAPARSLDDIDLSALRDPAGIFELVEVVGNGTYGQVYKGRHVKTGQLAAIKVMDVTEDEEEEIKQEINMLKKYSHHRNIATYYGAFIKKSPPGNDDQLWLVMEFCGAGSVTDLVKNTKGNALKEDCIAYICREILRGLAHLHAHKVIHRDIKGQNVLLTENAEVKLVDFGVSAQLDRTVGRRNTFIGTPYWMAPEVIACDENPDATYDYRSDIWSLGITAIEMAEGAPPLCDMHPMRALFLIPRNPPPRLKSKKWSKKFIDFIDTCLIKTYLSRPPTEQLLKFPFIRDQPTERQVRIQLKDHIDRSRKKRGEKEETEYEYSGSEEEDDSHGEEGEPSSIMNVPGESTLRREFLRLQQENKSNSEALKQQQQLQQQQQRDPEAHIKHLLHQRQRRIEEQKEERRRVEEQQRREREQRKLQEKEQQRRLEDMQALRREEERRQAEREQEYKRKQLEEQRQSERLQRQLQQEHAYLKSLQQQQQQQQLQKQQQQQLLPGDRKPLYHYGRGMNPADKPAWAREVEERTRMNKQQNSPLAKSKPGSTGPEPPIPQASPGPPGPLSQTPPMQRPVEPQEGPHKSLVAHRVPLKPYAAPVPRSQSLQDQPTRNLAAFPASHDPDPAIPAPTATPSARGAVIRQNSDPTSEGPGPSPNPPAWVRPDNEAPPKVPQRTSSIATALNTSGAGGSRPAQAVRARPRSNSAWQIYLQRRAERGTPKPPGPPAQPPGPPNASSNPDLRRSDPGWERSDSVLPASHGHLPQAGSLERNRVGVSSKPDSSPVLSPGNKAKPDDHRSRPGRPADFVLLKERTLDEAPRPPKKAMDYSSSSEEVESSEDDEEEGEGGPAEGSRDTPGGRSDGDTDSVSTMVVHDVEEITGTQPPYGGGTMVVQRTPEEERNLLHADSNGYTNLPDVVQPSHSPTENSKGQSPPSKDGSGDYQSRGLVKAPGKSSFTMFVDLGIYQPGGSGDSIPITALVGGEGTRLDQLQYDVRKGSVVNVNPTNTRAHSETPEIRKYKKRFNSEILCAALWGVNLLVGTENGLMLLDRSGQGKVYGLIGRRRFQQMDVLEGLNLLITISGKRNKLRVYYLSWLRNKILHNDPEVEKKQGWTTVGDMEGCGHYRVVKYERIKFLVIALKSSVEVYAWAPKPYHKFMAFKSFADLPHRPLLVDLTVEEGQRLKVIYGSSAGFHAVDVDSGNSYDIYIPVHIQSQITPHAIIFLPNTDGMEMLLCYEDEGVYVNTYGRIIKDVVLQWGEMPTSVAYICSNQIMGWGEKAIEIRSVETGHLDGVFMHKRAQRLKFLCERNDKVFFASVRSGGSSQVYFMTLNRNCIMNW
CK1γ1(h), sequence (Q9HCP0 whole entry): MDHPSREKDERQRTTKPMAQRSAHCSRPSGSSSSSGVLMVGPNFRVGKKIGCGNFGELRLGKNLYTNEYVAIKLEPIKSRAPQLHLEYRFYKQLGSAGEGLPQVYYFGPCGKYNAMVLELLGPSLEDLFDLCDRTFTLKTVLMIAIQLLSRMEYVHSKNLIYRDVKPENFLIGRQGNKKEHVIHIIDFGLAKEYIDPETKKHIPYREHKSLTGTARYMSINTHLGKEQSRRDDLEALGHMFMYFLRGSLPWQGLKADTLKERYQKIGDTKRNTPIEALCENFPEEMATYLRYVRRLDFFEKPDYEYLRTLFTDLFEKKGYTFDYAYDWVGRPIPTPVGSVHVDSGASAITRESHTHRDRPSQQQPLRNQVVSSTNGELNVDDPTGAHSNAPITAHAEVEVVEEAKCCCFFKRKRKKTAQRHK
Haspin(h), sequence (Q8TF76 whole entry): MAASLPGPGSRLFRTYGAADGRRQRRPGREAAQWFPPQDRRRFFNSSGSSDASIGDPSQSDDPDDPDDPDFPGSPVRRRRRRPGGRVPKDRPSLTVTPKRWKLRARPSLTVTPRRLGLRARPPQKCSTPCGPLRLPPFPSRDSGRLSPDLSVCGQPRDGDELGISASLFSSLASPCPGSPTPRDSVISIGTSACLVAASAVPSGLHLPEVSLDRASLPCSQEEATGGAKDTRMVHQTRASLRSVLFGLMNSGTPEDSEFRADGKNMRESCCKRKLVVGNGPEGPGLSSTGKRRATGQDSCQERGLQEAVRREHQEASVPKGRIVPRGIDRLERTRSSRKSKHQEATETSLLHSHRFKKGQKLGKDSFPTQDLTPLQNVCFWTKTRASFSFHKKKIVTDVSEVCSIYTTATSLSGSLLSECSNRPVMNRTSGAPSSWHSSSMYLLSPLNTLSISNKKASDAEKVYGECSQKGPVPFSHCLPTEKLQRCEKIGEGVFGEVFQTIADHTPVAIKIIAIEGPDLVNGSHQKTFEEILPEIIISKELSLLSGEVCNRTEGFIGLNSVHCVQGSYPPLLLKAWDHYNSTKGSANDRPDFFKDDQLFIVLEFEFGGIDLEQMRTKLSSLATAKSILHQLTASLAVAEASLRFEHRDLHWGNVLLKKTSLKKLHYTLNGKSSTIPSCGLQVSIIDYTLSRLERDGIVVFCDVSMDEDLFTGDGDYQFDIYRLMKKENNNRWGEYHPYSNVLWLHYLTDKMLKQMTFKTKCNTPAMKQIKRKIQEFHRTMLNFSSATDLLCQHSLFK
PDHK4(h), sequence (Q16654 whole entry): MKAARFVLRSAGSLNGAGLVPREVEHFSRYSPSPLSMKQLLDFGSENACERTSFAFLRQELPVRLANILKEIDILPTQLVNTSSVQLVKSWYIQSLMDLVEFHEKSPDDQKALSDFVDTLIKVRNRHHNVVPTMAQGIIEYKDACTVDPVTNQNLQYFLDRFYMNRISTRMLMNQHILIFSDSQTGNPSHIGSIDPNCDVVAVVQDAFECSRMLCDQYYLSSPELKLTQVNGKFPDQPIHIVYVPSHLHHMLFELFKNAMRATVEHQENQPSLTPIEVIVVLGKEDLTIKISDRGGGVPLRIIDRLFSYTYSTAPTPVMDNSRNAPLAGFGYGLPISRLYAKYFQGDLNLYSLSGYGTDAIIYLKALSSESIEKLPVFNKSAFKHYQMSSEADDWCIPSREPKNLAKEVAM

SMILES: Cc1cc2c(-c3ccc(NC(=O)[C@H](N)CC(C)(C)C)cc3C)ccnc2[nH]1 [Compound F-90, (2R)-2-Amino-4,4-dimethyl-N-[3-methyl-4-(2-methyl-1H-pyrrolo[2,3-b]pyridin-4-yl)phenyl]pentanamide]
- % Activity (FGFR3(h)): 86%
- % Activity (Flt4(h)): 96%
- % Activity (WNK4(h)): 97%
- % Activity (Tec(h) activated): 126%
- % Activity (CK1γ1(h)): 101%
- % Activity (CaMKIIα(h)): 88%
- % Activity (SGK3(h)): 102%
- % Activity [1]: 96%
- % Activity (HIPK3(h)): 85%
- % Activity (LIMK2(h)): 72%
- % Activity (EphB1(h)): 83%
- % Activity (GRK3(h)): 81%
- IC50 (BIKE): 902 nM
- % Activity (EphA4(h)): 92%
- % Activity (Haspin(h)): 140%
- % Activity (PKCη(h)): 118%
- % Activity (IRE1(h)): 99%
- % Activity (mTOR(h)): 95%
- % Activity (TGFBR1(h)): 103%
- % Activity (MINK(h)): 89%
- % Activity (PDHK4(h)): 101%
- % Activity (PKBβ(h)): 109%
- % Activity (BRK(h)): 83%
- % Activity (PKG1β(h)): 92%
- % Activity (Arg(h)): 72%
- % Activity (MRCKα(h)): 94%
